Results: patent publication US10245261B2, “Substituted indol-5-ol derivatives and their therapeutic applications” (NantBioScience, Inc., priority 2013, dated 2019)

Assays:
Assay in all cases: KinaseProfiler kinase assay
Type in all cases: biochemical
ALK(h) = ALK(h) (Homo sapiens, UniProt Q9UM73)
How it was run: (§1)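 Buffer 20 mM MOPS, 1 mM EDTA, 0.01% Brij-35, 5% glycerol, 0.1% β-mercaptoethanol, 1 mg/mL BSA for compound dilution; reaction at pH 7.0 with [γ-33P]ATP, 40 min RT; filtermat/scintillation read-out; 0%/100% set by no-kinase and phosphopeptide wells.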

CK1δ(h) = CK1δ(h) (Homo sapiens, UniProt P48730)
How it was run: as §1

TGFBR1(h) = TGFBR1(h) (Homo sapiens, UniProt P36897)
How it was run: as §1

MAPK1(h) = MAPK1(h) (Homo sapiens, UniProt P27361)
How it was run: as §1

SIK(h) = SIK(h) (Homo sapiens, UniProt P57059)
How it was run: as §1

Met(Y1248C)(h) = Met(Y1248C)(h) (Homo sapiens, UniProt P08581, Y1230C)
How it was run: as §1

EphA2(h) = EphA2(h) (Homo sapiens, UniProt P29317)
How it was run: as §1

DMPK(h) = DMPK(h) (Homo sapiens, UniProt Q09013)
How it was run: as §1

ALK4(h) = ALK4(h) (Homo sapiens, UniProt P36896)
How it was run: as §1

Fms(h) = Fms(h) (Homo sapiens, UniProt P07333)
How it was run: as §1

Met(Y1248H)(h) = Met(Y1248H)(h) (Homo sapiens, UniProt P08581, Y1230H)
How it was run: as §1

PASK(h) = PASK(h) (Homo sapiens, UniProt Q96RG2)
How it was run: as §1

PKCη(h) = PKCη(h) (Homo sapiens, UniProt P24723)
How it was run: as §1

Syk(h) = Syk(h) (Homo sapiens, UniProt P43405)
How it was run: as §1

MKK7β(h) = MKK7β(h) (Homo sapiens, UniProt O14733)
How it was run: as §1

TAO2(h) = TAO2(h) (Homo sapiens, UniProt Q9UL54)
How it was run: as §1

PDK1(h) = PDK1(h) (Homo sapiens, UniProt O15530)
How it was run: as §1

PKBβ(h) = PKBβ(h) (Homo sapiens, UniProt P31751)
How it was run: as §1

PRK2(h) = PRK2(h) (Homo sapiens, UniProt Q16513)
How it was run: as §1

SAPK3(h) = SAPK3(h) (Homo sapiens, UniProt P53778)
How it was run: as §1

eEF-2K(h) = eEF-2K(h) (Homo sapiens, UniProt O00418)
How it was run: as §1

MELK(h) = MELK(h) (Homo sapiens, UniProt Q14680)
How it was run: as §1

Met(M1268T)(h) = Met(M1268T)(h) (Homo sapiens, UniProt P08581, M1250T)
How it was run: as §1

Ron(h) = Ron(h) (Homo sapiens, UniProt Q04912)
How it was run: as §1

[1] = molecular target: PI3 Kinase (p110β/p85α)(m) (Mus musculus, UniProt Q8BTI9)
How it was run: as §1

CaMKI(h) = CaMKI(h) (Homo sapiens, UniProt Q14012)
How it was run: as §1

HIPK1(h) = HIPK1(h) (Homo sapiens, UniProt Q86Z02)
How it was run: as §1

EphB4(h) = EphB4(h) (Homo sapiens, UniProt P54760)
How it was run: as §1

IGF-1R(h), activated = IGF-1R(h), activated (Homo sapiens, UniProt P08069)
How it was run: as §1

Mer(h) = Mer(h) (Homo sapiens, UniProt Q12866)
How it was run: as §1

EGFR(T790M, L858R)(h) = EGFR(T790M, L858R)(h) (Homo sapiens, UniProt P00533, L858R/T790M)
How it was run: as §1

MST2(h) = MST2(h) (Homo sapiens, UniProt Q13188)
How it was run: as §1

PI3 Kinase (p110β/p85α)(m), sequence (Q8BTI9 whole entry): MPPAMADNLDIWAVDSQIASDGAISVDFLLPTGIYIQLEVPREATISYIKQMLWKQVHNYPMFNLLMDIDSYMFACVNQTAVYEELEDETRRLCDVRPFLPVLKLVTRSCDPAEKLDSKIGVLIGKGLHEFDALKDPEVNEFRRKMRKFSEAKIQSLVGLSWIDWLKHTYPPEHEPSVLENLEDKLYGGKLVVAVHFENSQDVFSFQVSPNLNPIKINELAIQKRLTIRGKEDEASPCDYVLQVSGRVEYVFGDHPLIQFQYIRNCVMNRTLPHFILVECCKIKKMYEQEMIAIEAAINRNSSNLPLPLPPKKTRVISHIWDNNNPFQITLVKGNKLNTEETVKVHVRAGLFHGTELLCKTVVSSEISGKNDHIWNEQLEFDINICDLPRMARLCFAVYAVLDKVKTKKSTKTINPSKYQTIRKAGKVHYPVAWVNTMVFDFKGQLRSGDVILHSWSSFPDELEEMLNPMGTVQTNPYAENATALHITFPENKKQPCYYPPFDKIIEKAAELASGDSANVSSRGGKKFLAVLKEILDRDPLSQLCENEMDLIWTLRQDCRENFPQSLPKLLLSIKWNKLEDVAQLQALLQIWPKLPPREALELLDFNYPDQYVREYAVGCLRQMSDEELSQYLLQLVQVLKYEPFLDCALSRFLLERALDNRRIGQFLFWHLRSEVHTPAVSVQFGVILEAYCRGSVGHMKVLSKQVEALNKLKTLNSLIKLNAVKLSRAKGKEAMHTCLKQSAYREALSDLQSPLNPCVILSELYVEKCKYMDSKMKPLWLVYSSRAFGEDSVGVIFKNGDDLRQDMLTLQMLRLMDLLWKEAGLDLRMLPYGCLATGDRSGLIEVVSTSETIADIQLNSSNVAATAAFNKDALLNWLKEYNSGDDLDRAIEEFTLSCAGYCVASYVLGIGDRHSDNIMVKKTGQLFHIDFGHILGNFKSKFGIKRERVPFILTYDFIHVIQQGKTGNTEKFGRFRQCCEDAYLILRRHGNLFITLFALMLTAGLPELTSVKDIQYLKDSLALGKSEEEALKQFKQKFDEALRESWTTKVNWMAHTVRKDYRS
PI3 Kinase (p110β/p85α)(m), sequence (P26450 whole entry partner): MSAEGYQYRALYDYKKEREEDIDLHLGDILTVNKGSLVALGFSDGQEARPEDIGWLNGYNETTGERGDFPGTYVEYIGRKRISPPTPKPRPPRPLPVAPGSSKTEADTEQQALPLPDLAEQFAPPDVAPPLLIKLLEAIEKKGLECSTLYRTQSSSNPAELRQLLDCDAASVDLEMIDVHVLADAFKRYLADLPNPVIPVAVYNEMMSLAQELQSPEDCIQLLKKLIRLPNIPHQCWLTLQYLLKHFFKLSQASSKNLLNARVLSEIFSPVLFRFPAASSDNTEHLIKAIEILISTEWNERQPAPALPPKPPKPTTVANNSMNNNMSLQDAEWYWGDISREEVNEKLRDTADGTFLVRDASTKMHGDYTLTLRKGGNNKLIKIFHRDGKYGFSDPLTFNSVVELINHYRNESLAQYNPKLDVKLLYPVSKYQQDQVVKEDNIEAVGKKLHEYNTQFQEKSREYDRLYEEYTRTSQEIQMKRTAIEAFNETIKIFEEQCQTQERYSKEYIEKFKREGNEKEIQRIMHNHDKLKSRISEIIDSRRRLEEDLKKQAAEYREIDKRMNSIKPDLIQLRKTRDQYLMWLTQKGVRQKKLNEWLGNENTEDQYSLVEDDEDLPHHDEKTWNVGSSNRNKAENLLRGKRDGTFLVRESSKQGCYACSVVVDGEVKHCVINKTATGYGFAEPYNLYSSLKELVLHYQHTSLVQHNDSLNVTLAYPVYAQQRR
Fms(h), sequence (P07333 20-972): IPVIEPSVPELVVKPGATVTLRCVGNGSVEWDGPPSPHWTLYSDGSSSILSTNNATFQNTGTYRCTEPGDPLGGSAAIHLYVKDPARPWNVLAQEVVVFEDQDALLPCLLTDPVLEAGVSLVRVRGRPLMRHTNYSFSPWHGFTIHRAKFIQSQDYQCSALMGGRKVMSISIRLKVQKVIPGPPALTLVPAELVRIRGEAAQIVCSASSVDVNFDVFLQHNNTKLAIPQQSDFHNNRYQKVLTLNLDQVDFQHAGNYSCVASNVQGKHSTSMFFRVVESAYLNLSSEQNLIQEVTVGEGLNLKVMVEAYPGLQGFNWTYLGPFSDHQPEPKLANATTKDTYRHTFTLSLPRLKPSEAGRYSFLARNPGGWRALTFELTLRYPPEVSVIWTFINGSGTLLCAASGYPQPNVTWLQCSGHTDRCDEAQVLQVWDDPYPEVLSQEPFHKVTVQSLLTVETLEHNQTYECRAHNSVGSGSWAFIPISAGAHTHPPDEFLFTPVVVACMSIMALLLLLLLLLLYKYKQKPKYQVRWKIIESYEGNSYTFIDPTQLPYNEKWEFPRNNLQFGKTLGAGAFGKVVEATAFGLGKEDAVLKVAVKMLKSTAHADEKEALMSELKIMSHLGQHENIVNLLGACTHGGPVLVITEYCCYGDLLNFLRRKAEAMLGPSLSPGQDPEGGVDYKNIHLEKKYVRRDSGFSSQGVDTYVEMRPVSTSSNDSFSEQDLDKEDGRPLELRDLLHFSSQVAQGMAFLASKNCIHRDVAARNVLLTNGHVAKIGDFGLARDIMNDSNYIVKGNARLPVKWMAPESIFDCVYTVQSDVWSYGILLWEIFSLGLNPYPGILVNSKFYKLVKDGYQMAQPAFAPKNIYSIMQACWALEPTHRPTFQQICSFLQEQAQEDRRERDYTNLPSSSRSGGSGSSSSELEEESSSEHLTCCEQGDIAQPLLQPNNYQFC
PKCη(h), sequence (P24723 whole entry): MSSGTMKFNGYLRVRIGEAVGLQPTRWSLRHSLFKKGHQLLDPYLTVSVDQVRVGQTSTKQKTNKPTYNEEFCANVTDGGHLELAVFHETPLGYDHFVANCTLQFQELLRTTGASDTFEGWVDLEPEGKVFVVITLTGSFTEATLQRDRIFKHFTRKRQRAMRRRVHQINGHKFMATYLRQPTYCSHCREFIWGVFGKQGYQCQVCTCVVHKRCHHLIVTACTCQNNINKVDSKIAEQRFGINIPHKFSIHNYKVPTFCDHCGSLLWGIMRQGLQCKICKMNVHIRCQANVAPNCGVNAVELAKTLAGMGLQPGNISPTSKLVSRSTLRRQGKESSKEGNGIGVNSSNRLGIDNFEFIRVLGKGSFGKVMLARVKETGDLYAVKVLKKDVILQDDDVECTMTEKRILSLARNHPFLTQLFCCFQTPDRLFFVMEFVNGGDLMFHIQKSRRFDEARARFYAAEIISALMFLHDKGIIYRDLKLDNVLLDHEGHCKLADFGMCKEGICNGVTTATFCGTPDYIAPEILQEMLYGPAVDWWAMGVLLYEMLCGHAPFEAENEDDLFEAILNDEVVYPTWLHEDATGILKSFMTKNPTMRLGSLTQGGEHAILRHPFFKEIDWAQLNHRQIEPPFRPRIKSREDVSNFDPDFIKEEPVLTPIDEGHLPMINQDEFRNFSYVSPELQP
DMPK(h), sequence (Q09013 whole entry): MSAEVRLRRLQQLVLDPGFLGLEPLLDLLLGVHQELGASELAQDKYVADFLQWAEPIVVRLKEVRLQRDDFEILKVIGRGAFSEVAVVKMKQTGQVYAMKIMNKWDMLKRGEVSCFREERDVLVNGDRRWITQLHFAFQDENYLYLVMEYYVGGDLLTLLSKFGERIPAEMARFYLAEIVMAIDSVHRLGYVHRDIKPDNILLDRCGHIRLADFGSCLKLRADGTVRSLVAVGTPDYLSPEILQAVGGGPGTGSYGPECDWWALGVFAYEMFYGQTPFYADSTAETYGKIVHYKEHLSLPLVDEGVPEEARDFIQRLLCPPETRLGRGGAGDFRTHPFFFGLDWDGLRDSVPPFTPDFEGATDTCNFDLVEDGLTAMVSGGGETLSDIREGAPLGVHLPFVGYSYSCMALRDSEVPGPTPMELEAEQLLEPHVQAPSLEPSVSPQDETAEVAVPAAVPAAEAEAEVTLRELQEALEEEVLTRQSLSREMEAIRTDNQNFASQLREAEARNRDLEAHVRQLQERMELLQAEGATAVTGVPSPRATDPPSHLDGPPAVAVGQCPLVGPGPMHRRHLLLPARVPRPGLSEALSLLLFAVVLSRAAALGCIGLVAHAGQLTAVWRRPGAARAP
MST2(h), sequence (Q13188 whole entry): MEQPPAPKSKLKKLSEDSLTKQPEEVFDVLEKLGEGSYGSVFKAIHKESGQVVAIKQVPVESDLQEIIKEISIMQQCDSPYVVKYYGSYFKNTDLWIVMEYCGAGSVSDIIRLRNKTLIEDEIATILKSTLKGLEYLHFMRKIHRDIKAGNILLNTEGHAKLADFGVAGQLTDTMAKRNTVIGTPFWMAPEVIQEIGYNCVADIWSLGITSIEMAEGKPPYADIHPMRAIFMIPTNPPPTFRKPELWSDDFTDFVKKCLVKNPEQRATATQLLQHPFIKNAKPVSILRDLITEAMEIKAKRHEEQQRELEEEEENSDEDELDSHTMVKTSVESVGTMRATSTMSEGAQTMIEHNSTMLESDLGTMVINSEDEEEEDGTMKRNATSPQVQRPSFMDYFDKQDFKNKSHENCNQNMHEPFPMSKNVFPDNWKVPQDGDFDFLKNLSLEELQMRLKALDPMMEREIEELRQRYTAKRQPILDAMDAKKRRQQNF
TGFBR1(h), sequence (P36897 34-503): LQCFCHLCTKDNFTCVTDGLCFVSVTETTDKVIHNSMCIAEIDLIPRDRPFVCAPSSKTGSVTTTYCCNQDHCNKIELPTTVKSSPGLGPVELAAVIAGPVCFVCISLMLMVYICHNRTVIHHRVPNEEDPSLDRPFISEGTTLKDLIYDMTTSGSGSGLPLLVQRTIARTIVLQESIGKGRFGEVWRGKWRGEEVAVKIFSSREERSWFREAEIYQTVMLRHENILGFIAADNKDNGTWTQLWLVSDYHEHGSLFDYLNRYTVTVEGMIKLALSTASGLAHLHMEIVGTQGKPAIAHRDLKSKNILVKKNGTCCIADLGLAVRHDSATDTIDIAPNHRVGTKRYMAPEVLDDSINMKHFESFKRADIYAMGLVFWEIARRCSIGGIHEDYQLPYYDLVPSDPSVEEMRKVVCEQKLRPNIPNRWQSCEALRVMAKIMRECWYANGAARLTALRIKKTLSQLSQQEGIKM

Row | SMILES | inhibition at 0.1 µM (ALK(h)) | inhibition at 0.1 µM (CK1δ(h)) | inhibition at 0.1 µM (TGFBR1(h)) | inhibition at 0.1 µM (MAPK1(h)) | inhibition at 0.1 µM (SIK(h)) | inhibition at 0.1 µM (Met(Y1248C)(h)) | inhibition at 0.1 µM (EphA2(h)) | inhibition at 0.1 µM (DMPK(h)) | inhibition at 0.1 µM (ALK4(h)) | inhibition at 0.1 µM (Fms(h)) | inhibition at 0.1 µM (Met(Y1248H)(h)) | inhibition at 0.1 µM (PASK(h)) | inhibition at 0.1 µM (PKCη(h)) | inhibition at 0.1 µM (Syk(h)) | inhibition at 0.1 µM (MKK7β(h)) | inhibition at 0.1 µM (TAO2(h)) | inhibition at 0.1 µM (PDK1(h)) | inhibition at 0.1 µM (PKBβ(h)) | inhibition at 0.1 µM (PRK2(h)) | inhibition at 0.1 µM (SAPK3(h)) | other results
1 | Cc1cc2c(F)c(Oc3nc(Nc4cc(C5CC5)[nH]n4)cc(N4CCN(C)CC4)n3)ccc2[nH]1 [Compound 10] | 87% | -21% | 66% | -4% | 50% | 57% | 96% | -4% | 77% | 91% | 69% | 22% | -16% | 25% | -26% | 18% | 13% | -35% | 51% | -4% | inhibition at 0.1 µM (eEF-2K(h)): -15%; inhibition at 0.1 µM (MELK(h)): 69%; inhibition at 0.1 µM (Met(M1268T)(h)): 91%; inhibition at 0.1 µM (Ron(h)): 34%; inhibition at 0.1 µM [1]: 0%; inhibition at 0.1 µM (CaMKI(h)): 2%; inhibition at 0.1 µM (HIPK1(h)): -6%; inhibition at 0.1 µM (EphB4(h)): 85%; inhibition at 0.1 µM (IGF-1R(h), activated): 59%; inhibition at 0.1 µM (Mer(h)): 97%; inhibition at 0.1 µM (EGFR(T790M, L858R)(h)): 53%; inhibition at 0.1 µM (MST2(h)): 24%
2 | Cc1cc2c(F)c(Oc3nc(Nc4cc(C5CC5)[nH]n4)cc(N4CCNCC4)n3)ccc2[nH]1 [Compound 11, N-(5-cyclopropyl-1H-pyrazol-3-yl)-2-((4-fluoro-2-methyl-1H-indol-5-yl)oxy)-6-(piperazin-1-yl)pyrimidin-4-amine] | 86% | -3% | 47% | -10% | 56% | 95% | 98% | -16% | 81% | 95% | 91% | -17% | -7% | 36% | -16% | 16% | 3% | -9% | 51% | -24% | inhibition at 0.1 µM (eEF-2K(h)): 10%; inhibition at 0.1 µM (MELK(h)): 87%; inhibition at 0.1 µM (Met(M1268T)(h)): 72%; inhibition at 0.1 µM (Ron(h)): 43%; inhibition at 0.1 µM [1]: 1%; inhibition at 0.1 µM (CaMKI(h)): 7%; inhibition at 0.1 µM (HIPK1(h)): -12%; inhibition at 0.1 µM (EphB4(h)): 85%; inhibition at 0.1 µM (IGF-1R(h), activated): 65%; inhibition at 0.1 µM (Mer(h)): 96%; inhibition at 0.1 µM (EGFR(T790M, L858R)(h)): 69%; inhibition at 0.1 µM (MST2(h)): 22%
